From ChEMBL document CHEMBL1152157, “Total synthesis and biological evaluation of potent analogues of dictyostatin: modification of the C2-C6 dienoate region” (Bioorg Med Chem Lett, 2008) come the findings set out here.

Activity calls are given as the source filed them. The calls are words filed in the database; no cut-off is given here.

Common to all, as to format: functional, cell-based
One test deals with ASPC1. The test can be described thus: Cytotoxicity against taxol-sensitive human AsPC1 cells after 72 hrs by MTT assay. The following applies: ASPC1, 72 h. (In general: Tetrazolium dyes change colour on reduction, which living cells bring about.)
The test system of a further test is DLD-1. The test can be described thus: Cytotoxicity against taxol-sensitive human DLD1 cells after 72 hrs by MTT assay. To be noted: DLD-1, 72 h.
Test [1] concerns PANC-1. The test can be described thus: Cytotoxicity against taxol-sensitive human PANC1 cells after 72 hrs by MTT assay. The following applies: PANC-1, 72 h.
The test system of another test is NCI/ADR-RES. The test can be described thus: Cytotoxicity against taxol-resistant human NCI/ADR-RES cells after 72 hrs by MTT assay.
Test [2] has as its system PANC-1. The test can be described thus: Cell cycle arrest in human PANC1 cells by accumulation in G2/M phase.
In test [3] the test system is PANC-1. The test can be described thus: Induction of microtubule stabilization in human PANC1 cells assessed as formation of dense intracellular microtubule bundles.

For the molecule `C=C/C=C\[C@H](C)[C@@H]1OC(=O)/C=C\C=C\C[C@@H](O)C[C@H](O)/C=C\[C@H](C)[C@H](O)[C@@H](C)C[C@@H](C)CC[C@@H](O)[C@@H]1C`, the IC50 amounted to 56 nM in the test with ASPC1, 8.1 nM in the test on DLD-1, 17 nM in the test with PANC-1 [1] and 43 nM with NCI/ADR-RES. Also, the outcome in the test on PANC-1 [2] and in the test with PANC-1 [3] was Active.

As to `C=C/C=C\[C@H](C)[C@H](OC(N)=O)[C@@H](C)[C@H](O)[C@@H](C)C/C(C)=C\[C@H](C)[C@@H](O)[C@@H](C)/C=C\[C@@H](O)C[C@@H]1OC(=O)[C@H](C)[C@@H](O)[C@H]1C` [DISERMOLIDE], in the test with NCI/ADR-RES, it took 160 nM to reach half-maximal inhibition (IC50).

Consider `C=C/C=C\[C@H](C)[C@@H]1OC(=O)CCCC[C@@H](C)[C@@H](O)C[C@H](O)/C=C\[C@H](C)[C@H](O)[C@@H](C)C[C@@H](C)CC[C@@H](O)[C@@H]1C`, for which the IC50 is 120 nM with ASPC1, 55 nM in the test with DLD-1, 64 nM in the test with PANC-1 [1] and 130 nM in the test with NCI/ADR-RES. Further, the outcome in the test on PANC-1 [2] and with PANC-1 [3] was Active.

Take `C=C/C=C\[C@H](C)[C@@H]1OC(=O)/C=C\C=C\[C@@H](C)[C@@H](O)C[C@H](O)/C=C\[C@H](C)[C@H](O)[C@@H](C)C[C@@H](C)CC[C@@H](O)[C@@H]1C` [DICTYOSTATIN]: the IC50 in the test with ASPC1 was 6.2 nM; in the test on DLD-1, 2.2 nM; with PANC-1 [1], 4.2 nM; in the test on NCI/ADR-RES it was 6.6 nM.

Take `C=C/C=C\[C@H](C)[C@@H]1OC(=O)CC/C=C/[C@@H](C)[C@@H](O)C[C@H](O)/C=C\[C@H](C)[C@H](O)[C@@H](C)C[C@@H](C)CC[C@@H](O)[C@@H]1C`: the IC50 stood at 94 nM in the test on ASPC1, 22 nM in the test with DLD-1, 42 nM in the test with PANC-1 [1] and 66 nM in the test on NCI/ADR-RES. Further, the outcome in the test on PANC-1 [2] and with PANC-1 [3] was Active.

As for `CC(=O)O[C@H]1C(=O)[C@@]2(C)[C@H]([C@H](OC(=O)c3ccccc3)[C@]3(O)C[C@H](OC(=O)[C@H](O)[C@@H](NC(=O)c4ccccc4)c4ccccc4)C(C)=C1C3(C)C)[C@]1(OC(C)=O)CO[C@@H]1C[C@@H]2O` [PACLITAXEL], the IC50 in the test with ASPC1 stood at 89 nM; in the test on DLD-1, 22 nM; in the test with PANC-1 [1], 9.9 nM; with NCI/ADR-RES, 1300 nM.

One may read the IC50 as the midpoint of a concentration-inhibition curve. Lower therefore signals higher potency.
